Key:
[1] = tested on: adrenergic receptor signaling; assay: intracellular cAMP levels in human liver organoids; format: cell-based; settings: compared to untreated organoids
Method: The sympathetic neurons, or sympathetic nerves, in human liver organoids were ablated by 6-hydroxydopamine (6-OHDA), a sympathetic-specific toxin, and the intracellular levels of cyclic AMP (CAMP), a second messenger of adrenergic receptors in human liver organoids, were measured.

[2] = tested on: hepatocytes of human liver organoids; assay: TG accumulation in hepatocytes of organoids, live cell imaging with BODIPY 493/503; format: cell-based
Method: Next, it was determined whether sympathetic neurons, or sympathetic nerves, in human liver organoids contribute to lipid accumulation in hepatocytes. After treatment with 6-OHDA, triglyceride (TG) in hepatocytes of the organoids were measured by live cell imaging using BODIPY 493/503, a fluorescent probe for TG, and the accumulation of TG in hepatocytes of 6-OHDA-treated and untreated organoids was compared. TG accumulation in hepatocytes of 6-OHDA-treated organoids was about twice that of untreated organoids (FIG. 8A). In addition, TG accumulation in hepatocytes of organoids treated with 6-OHDA and then exposed to oleic acid (OA) for 3 days was about 3-fold higher than that of OA-only treated organoids (FIG. 8A).

human liver organoids = assay: RT-qPCR of gluconeogenesis, lipogenesis and cytokine genes in liver organoids; format: cell-based
[3] = tested on: human liver organoids (HLOs); assay: immunostaining and cell volume analysis of TUBB3+ and TH+ nerves in HLOs; format: cell-based
Method: Single cell RNA sequencing (scRNAseq) and real-time PCR quantification of gene expression were performed in day 20 (D20) liver organoids, and it was noted that the neuron attractive factor BDNF was highly expressed in hepatic stellate-like cells of the liver organoids. (FIG. 13). HLOs were treated with and without 1 μM BDNF inhibitor ANA12 for 5 days from day 15 (D15) to day 20 (D20) of differentiation induction. […] (FIG. 14). […] HLOs were treated with and without 100 nM of BDNF for 13 days from day 15 (D15) to day 28 (D28) of differentiation induction.

[4] = tested on: human liver organoids (HLOs); assay: generation of neural crest cells and sympathetic neurons in HLOs (real-time PCR, whole mount immunostaining, flow cytometry); format: cell-based
foregut spheroids = assay: real-time PCR of neural crest markers in foregut spheroids; format: cell-based, human; settings: 250 nM, 500 nM, or 1000 nM for 72 hours D3 to D6, PCR on D6
Method: (§1) Foregut spheroids were treated with 250 nM, 500 nM, or 1000 nM of the BMP inhibitor LDN193189 for 72 hours from day 3 (D3) to day 6 (D6) of differentiation, and real-time PCR quantification was performed on D6. […] (FIG. 12). […] (FIG. 15A).

[5] = tested on: human liver organoids (HLOs); assay: generation of neural crest cells and sympathetic neurons in HLOs (real-time PCR, whole mount immunostaining, flow cytometry); format: cell-based; remark: listed apart in the source
Method: as §1

[6] = tested on: human liver organoids (HLOs); assay: gene expression of liver markers / liver induction in HLOs; format: cell-based
[7] = tested on: human liver organoids (HLOs); assay: albumin (ALB) secretion of HLOs; format: cell-based
[8] = tested on: HLO derived from two different iPS lines; assay: amount of TH+ cells in OA-treated HLO (NASH model); format: cell-based, human; settings: OA treatment
Source text: FIG. 25 depicts the effect of OA treatment in increasing the amount of TH+ cells in HLO derived from two different iPS lines, showing an increase in innervation in a NASH model.
• 1. The distribution of sympathetic nerves projected to the liver is very different in humans as compared to experimental model animals, such as mice and rats. The presently described sympathetic neuron-containing human liver organoid model is expected to elucidate the distinctive mechanisms and timing of intrahepatic sympathetic projections during human liver development. • 2. Although it has been reported that sympathetic nerves contribute to the development and function of multiple organs, little is known regarding sympathetic nerves in the liver. This model leads to the identification of sympathetic effects on human liver development and the elucidation of their mechanisms of action. The model can also enable construction of enhanced (or mature) liver organoids by artificially regulating sympathetic nerve activity. • 3. The sympathetic nervous system has been reported to regulate gluconeogenesis in humans, but the mechanism by which it is promoted is unknown. Using this model, the mechanisms of human hepatic sympathetic innervation in gluconeogenesis can be elucidated. • 4. […] This model will allow us to identify the role of sympathetic nerves and their mechanisms in liver diseases. […]

[9] = RT-qPCR, 6-OHDA treated organoids vs control
[10] = steatosis conditions (oleic acid), relative to those not treated with 6-OHDA
[11] = SB alone, 10 μM, days 3-6, listed as SB

`NCCc1cc(O)c(O)cc1O` [6-OHDA, 6-hydroxydopamine] was tested, and the “concentration of cAMP” value [1] was “significantly decreased”, the “TG accumulation in hepatocytes” value ([2]; 6-OHDA then oleic acid (OA) for 3 days, vs OA-only treated organoids) was “about 3 fold” and the “TG accumulation in hepatocytes” value ([2]; 6-OHDA-treated vs untreated organoids) was “about twice”. For the same molecule, the “expression of CD36” value (human liver organoids; [9]) was “increased expression”, the “expression of G6PC” value (human liver organoids; [9]) was “increased expression” and the “expression of PCK1” value (human liver organoids; [9]) was “increased expression”. For the same molecule, the “expression of SCD” value (human liver organoids; [9]) was “increased expression”, the “expression of CXCL8 (IL8)” value (human liver organoids; [10]) was “increased expression” and the “expression of TNF” value (human liver organoids; [10]) was “increased expression”.

With `O=C(Nc1ccccc1C(=O)NC1CCCCNC1=O)c1cc2ccccc2s1` (centres unmarked) [ANA12] the “TH+ nerve production and elongation of nerves” value ([3]; 1 μM for 5 days, D15 to D20) was “suppressed TH+ nerve production and elongation of nerves”.

For `Cc1c[nH]c(-c2cnc(NCCNc3ccc(C#N)cn3)nc2-c2ccc(Cl)cc2Cl)n1` [CHIR], the “TUBB3+ neurons and SOX10 neural crest cells compared to LDN alone” value ([4]; 3 μM CHIR instead of 2 μM, with 250 nM LDN, days 3-6) was “more and More”.

`c1ccc2c(-c3cnn4cc(-c5ccc(N6CCNCC6)cc5)cnc34)ccnc2c1` [LDN193189] was tested, and the “expression of neural crest marker FOXD3” value (foregut spheroids) was “increased expression”, the “expression of neural crest marker NGFR” value (foregut spheroids) was “increased expression” and the “expression of neural crest marker SOX10” value (foregut spheroids) was “increased expression”. The “neural crest cells and TUBB3/TH+ neurons detected” value ([5]; 250 nM, days 3-6) was “high frequency”, the “induction of neural crest cells and TH/TUBB+ sympathetic neurons” value ([5]; 250 nM, days 3 to 6) was “optimal concentrations” and the “induction of neural crest cells and TH/TUBB+ sympathetic neurons” value ([5]; 500 nM, days 3 to 6) was “optimal concentrations”. For the same molecule, the “TH/TUBB+ sympathetic neurons” value ([5]; 1000 nM, days 3 to 6) was “reduced”, the “production of neural crest cells” value ([5]; 1000 nM, days 3 to 6) was “reduced” and the “creation of sympathetic neurons, or sympathetic nerves” value ([5]; LDN 250 (nM)) was “reproducibly”. The “gene expression level of liver marker HNF4A” value ([6]; 250 nM, 500 nM, 1000 nM) was “decrease in a LDN concentration-dependent manner”, the “gene expression level of liver marker albumin (ALB)” value ([6]; 250 nM, 500 nM, 1000 nM) was “decrease in a LDN concentration-dependent manner” and the “gene expression of liver marker ALB” value ([6]; 250 nM, days 3-6) was “reduced”. For the same molecule, the “gene expression of liver marker HNF4A” value ([6]; 250 nM, days 3-6) was “reduced”, the “induction to the liver” value ([6]; timing of addition changed from Day 3-6 to Day 6-10) was “improves induction to the liver” and the ALB secretion lower ([7]; 250 nM LDN193189 alone or in combination with 10 μM SB431542, days 6-10) was “about ⅓”. The ALB secretion ([7]; 250 nM, days 3-6) was “reduced”, the “albumin secretion compared to existing HLOs” value ([7]; 250 nM, days 3-6) was 30-40 fold lower and the “reduction of albumin secretion compared to conventional HLOs” value ([7]; addition Day 6-10) was “a third”. For the same molecule, the detection of neurons ([4]; 250 nM LDN193189 alone or in combination with 10 μM SB431542, days 6-10, rate varies between batches) was “sometimes detected”, the “expression of autonomic marker ASCL1” value ([4]; HLOs on day 20, treated days 3-6, real-time PCR) was “increased” and the “frequency of sympathetic generation” value ([4]; addition Day 6-10) was “varies between batches”.

`CCCCCCCC/C=C\CCCCCCCC(=O)O` [OA, oleic acid] was tested, and the “amount of TH+ cells in HLO” value [8] was “increasing”.

With `NC(=O)c1ccc(-c2nc(-c3ccc4c(c3)OCO4)c(-c3ccccn3)[nH]2)cc1` [SB431542] the albumin secretion ([7]; SB431542 (10 μM) in addition to LDN (250 nM), days 3-6) was “minimal”, the “neural crest cells and TUBB3/TH+ neurons detected” value ([4]; 10 μM SB431542 with 250 nM LDN193189, days 3-6) was “detected earlier (day 15) and more frequently than in the other conditions” and the “TUBB+/TH+ sympathetic innervation” value ([4]; SB431542 in addition to LDN, Day 3-Day 6, LDN alone had not yet developed innervation on day 15) was “extensive TUBB+/TH+ sympathetic innervation was formed around day 15”. For the same molecule, the TH signal ([4]; SB alone, 10 μM, days 3-6) was “no TH signal was observed”, the “TUBB3-positive cells / TUBB3+ innervation” value ([4]; SB alone, 10 μM, days 3-6) was “appeared” and the “expression of the parasympathetic marker CHAT” value ([4]; SB alone, 10 μM, days 3-6) was “detected in some TUBB3+ nerves”. The “TUBB3-positive cells / TUBB3+ innervation” value [4, 11] was “observed” and the “expression of the parasympathetic marker CHAT” value [4, 11] was “detected in some cells”.

With `CC(C)NCC(O)c1ccc(O)c(O)c1` (centres unmarked) [isoproterenol] the “concentration of cAMP” value [1] was “increased”.

`NC[C@H](O)c1ccc(O)c(O)c1` [noradrenaline] was tested, and the “concentration of cAMP” value [1] was “increased”.

B1: BDNF: brain derived neurotrophic factor, neuron attractive factor (protein, UniProt P23560 19-247, looked up)
Neurotrophic factor BDNF …: APMKEANIRGQGGLAYPGVRTHGTLESVNGPKAGSRGLTSLADTFEHVIEELLDEDQKVRPNEENNKDADLYTSRVMLSSQVPLEPPLLFLLEEYKNYLDAANMSMRVRRHSDPARRGELSVCDSISEWVTAADKKTAVDMSGGTVTVLEKVPVSKGQLKQYFYETKCNPMGYTKEGCRGIDKRHWNSQCRTTQSYVRALTMDSKKRIGWRFIRIDTSCVCTLTIKRGR
With B1 the “nerves (TUBB3 immunostaining)” value ([3]; 100 nM for 13 days, D15 to D28) was “nerves tend to increase and elongate”.
